Assay results reported in US12653191B2, “Active compound combinations” (Bayer Aktiengesellschaft, priority 2020, dated 2026).
Values joined by “and” are separate entries in the source; they are usually repeats but may differ in a detail not shown here. Equal values may be shown once.

Columns and labels:
Diaporthe citri = assay: in vitro-Test with fungal microorganisms, Method A (tables F1-F11); type: cell-based; conditions: applied alone
Description: (§1) Example: In Vitro-Test with Fungal Microorganisms
(§2) Wells of 96-well microtiter plates are filled with 10 μl of a preparation of test compound or compound combination in methanol+emulsifier alkylaryl-polyglycol-ether. Thereafter, the solvent is evaporated in a hood. At the next step, 100 μl of liquid potato dextrose medium is given into each well, that has been amended with an appropriate concentration of spores or mycelium suspension of the test fungus.
(§3) With the aid of a photometer, the extinction in all wells is measured at the wavelength of 620 nm.
(§4) The microtiter plates are incubated at 20° C. and 85% relative humidity. The inhibition of growth is determined again photometrically 3-5 days after the application. Efficacy is calculated in relation to the untreated control, 0% efficacy means fungal growth as high as in untreated control while 100% efficacy means no fungal growth is measured.
(§5) The data in tables A1 to A12, B1 to B14, C1 to C10, D1 to D8, E1 to E8, F1 to F11, G1 to G4, H1 to H4 and I1 to I5 were collected according to Method A. The data in tables A13 to A22, B15 to B18, C11 to C20, E9 to E16, F12 to F15, G5 to G15, H5 to H8, I6 to I11 and J1 to J11 were collected according to Method B.

[1] = test system: Colletotrichum lindemuthianum; assay: in vitro-Test with fungal microorganisms, Method A (tables D1-D8); type: cell-based
Description: as §1, §2, §3, §4, §5

[2] = test system: Ustilago segetum var. avenae; assay: in vitro-Test with fungal microorganisms, Method B (tables I6-I11); type: cell-based
Description: as §1
as §2, with “30” for “10”, “200” for “100”, “growth” for “potato dextrose”, “given,” for “given into each well,”
(§6) With the aid of a photometer, the extinction in all wells is measured at the wavelength of 600 nm.
(§7) The microtiter plates are incubated for 3 to 7 days at 20° C. and 85% relative humidity. After the incubation inhibition of growth is determined photometrically. Efficacy is calculated in relation to the untreated control, 0% efficacy means fungal growth as high as in untreated control while 100% efficacy means no fungal growth is measured.
as §5

Cercospora beticola [3] = assay: in vitro-Test with fungal microorganisms, Method B (tables C11-C20); type: cell-based
Description: as §1
as §2, with “30” for “10”, “200” for “100”, “growth” for “potato dextrose”, “given,” for “given into each well,”
as §6, §7, §5

Cordana musae [4] = assay: in vitro-Test with fungal microorganisms, Method A (tables E1-E8); type: cell-based
Description: as §1, §2, §3, §4, §5

Fusarium culmorum [5] = assay: in vitro-Test with fungal microorganisms, Method B (tables G5-G15); type: cell-based
Description: as §1
as §2, with “30” for “10”, “200” for “100”, “growth” for “potato dextrose”, “given,” for “given into each well,”
as §6, §7, §5

Botrytis cinerea [6] = assay: in vitro-Test with fungal microorganisms, Method B (tables B15-B18); type: cell-based
Description: as §1
as §2, with “30” for “10”, “200” for “100”, “growth” for “potato dextrose”, “given,” for “given into each well,”
as §6, §7, §5

Cercospora beticola [7] = assay: in vitro-Test with fungal microorganisms, Method A (tables C1-C10); type: cell-based
Description: as §1, §2, §3, §4, §5

Botrytis cinerea [8] = assay: in vitro-Test with fungal microorganisms, Method A (tables B1-B14); type: cell-based; conditions: for Efficacy %: alone
Description: as §1, §2, §3, §4, §5

Alternaria alternate = assay: in vitro-Test with fungal microorganisms, Method A (tables A1-A12); type: cell-based, Alternaria alternata; conditions: applied alone
Description: as §1, §2, §3, §4, §5

Cordana musae [9] = assay: in vitro-Test with fungal microorganisms, Method B (tables E9-E16); type: cell-based; conditions: single active
Description: as §1
as §2, with “30” for “10”, “200” for “100”, “growth” for “potato dextrose”, “given,” for “given into each well,”
as §6, §7, §5

Alternaria alternata = assay: in vitro-Test with fungal microorganisms, Method B (tables A13-A22); type: cell-based; conditions: single compound
Description: as §1
as §2, with “30” for “10”, “200” for “100”, “growth” for “potato dextrose”, “given,” for “given into each well,”
as §6, §7, §5

Colletotrichum coccodes = assay: in vitro-Test with fungal microorganisms, Method B (tables J1-J11); type: cell-based
Description: as §1
as §2, with “30” for “10”, “200” for “100”, “growth” for “potato dextrose”, “given,” for “given into each well,”
as §6, §7, §5

[10] = test system: Ustilago segetum var. avenae; assay: in vitro-Test with fungal microorganisms, Method A (tables I1-I5); type: cell-based; conditions: alone
Description: as §1, §2, §3, §4, §5

Fusarium culmorum [11] = assay: in vitro-Test with fungal microorganisms, Method A (tables G1-G4); type: cell-based; conditions: alone
Description: as §1, §2, §3, §4, §5

**Q.** For `CC(C)c1ccc(Cl)cc1CN(C(=O)c1c(C(F)F)nn(C)c1F)C1CC1` [(2.038) isoflucypram, isoflucypram], which Efficacy (Diaporthe citri; 0.008 ppm) is on record?
**A.** The Efficacy was 0%.

**Q.** What about the Efficacy (Diaporthe citri; 0.04 ppm) of the same compound?
**A.** The Efficacy was 0%.

**Q.** What about the Efficacy (Diaporthe citri; 1.0 ppm) of the same compound?
**A.** The Efficacy was 30% and 38%.

**Q.** And the Efficacy % ([1]; single active at 0.008 ppm)?
**A.** The Efficacy % was 0%.

**Q.** And the Efficacy % ([1]; single active at 0.04 ppm)?
**A.** The Efficacy % was 14%.

**Q.** What about the Efficacy % ([1]; single active at 0.2 ppm) of the same compound?
**A.** Its Efficacy % is 0%.

**Q.** And the Efficacy % ([1]; single active at 1.0 ppm)?
**A.** Its Efficacy % is 18%.

**Q.** And the Efficacy % ([2]; 0.008 ppm)?
**A.** Its Efficacy % is 9%.

**Q.** And the Efficacy % ([2]; 0.04 ppm)?
**A.** The Efficacy % was 17%.

**Q.** And the Efficacy % ([2]; 0.2 ppm)?
**A.** The Efficacy % was 100%.

**Q.** What about the Efficacy % ([2]; alone, 0.008 ppm) of the same compound?
**A.** Its Efficacy % is 2%.

**Q.** And the Efficacy % ([2]; alone, 0.04 ppm)?
**A.** The Efficacy % was 5%.

**Q.** And the Efficacy % ([2]; alone, 0.2 ppm)?
**A.** Its Efficacy % is 100%.

**Q.** And the Efficacy % (Cercospora beticola [3]; 0.008 ppm)?
**A.** Its Efficacy % is 8%.

**Q.** And the Efficacy % (Cercospora beticola [3]; 0.04 ppm)?
**A.** The Efficacy % was 14%.

**Q.** And the Efficacy % (Cercospora beticola [3]; 0.2 ppm)?
**A.** The Efficacy % was 16%.

**Q.** What about the Efficacy % (Cercospora beticola [3]; 1 ppm) of the same compound?
**A.** The Efficacy % was 44%.

**Q.** And the Efficacy % (Cercospora beticola [3]; single compound, 0.04 ppm)?
**A.** The Efficacy % was 14% and 13%.

**Q.** What about the Efficacy % (Cercospora beticola [3]; single compound, 1 ppm) of the same compound?
**A.** The Efficacy % was 40% and 35%.

**Q.** And the Efficacy % (Cordana musae [4]; mixing partner alone, 0.008 ppm)?
**A.** Its Efficacy % is 0%.

**Q.** What about the Efficacy % (Cordana musae [4]; mixing partner alone, 0.04 ppm) of the same compound?
**A.** Its Efficacy % is 0%.

**Q.** What about the Efficacy % (Cordana musae [4]; mixing partner alone, 0.2 ppm) of the same compound?
**A.** The Efficacy % was 0%.

**Q.** What about the Efficacy % (Cordana musae [4]; mixing partner alone, 1.0 ppm) of the same compound?
**A.** The Efficacy % was 0%.

**Q.** And the Efficacy % (Cordana musae [4]; single substance, 0.008 ppm)?
**A.** Its Efficacy % is 0%.

**Q.** And the Efficacy % (Cordana musae [4]; single substance, 0.04 ppm)?
**A.** Its Efficacy % is 0%.

**Q.** What about the Efficacy % (Cordana musae [4]; single substance, 0.2 ppm) of the same compound?
**A.** The Efficacy % was 0% and 1%.

**Q.** What about the Efficacy % (Cordana musae [4]; single substance, 1.0 ppm) of the same compound?
**A.** The Efficacy % was 22% and 27%.

**Q.** And the Efficacy (Fusarium culmorum [5]; 0.008 ppm alone)?
**A.** The Efficacy was 0%.

**Q.** And the Efficacy (Fusarium culmorum [5]; 0.04 ppm alone)?
**A.** The Efficacy was 0%.

**Q.** What about the Efficacy (Fusarium culmorum [5]; 0.2 ppm alone) of the same compound?
**A.** The Efficacy was 10%.

**Q.** What about the Efficacy (Fusarium culmorum [5]; 1 ppm alone) of the same compound?
**A.** The Efficacy was 24%.

**Q.** And the Efficacy (Fusarium culmorum [5]; single active compound, 0.04 ppm)?
**A.** Its Efficacy is 10%.

**Q.** And the Efficacy (Fusarium culmorum [5]; single active compound, 0.2 ppm)?
**A.** The Efficacy was 19% and 20%.

**Q.** And the Efficacy % (Botrytis cinerea [6]; 0.2 ppm alone)?
**A.** Its Efficacy % is 53%.

**Q.** And the Efficacy % (Botrytis cinerea [6]; 1 ppm alone)?
**A.** Its Efficacy % is 70%.

**Q.** And the Efficacy % (Cercospora beticola [7]; 0.008 ppm alone)?
**A.** Its Efficacy % is 10%.

**Q.** And the Efficacy % (Cercospora beticola [7]; 0.04 ppm alone)?
**A.** The Efficacy % was 0%.

**Q.** And the Efficacy % (Cercospora beticola [7]; 0.2 ppm alone)?
**A.** Its Efficacy % is 44%.

**Q.** What about the Efficacy % (Cercospora beticola [7]; 1.0 ppm alone) of the same compound?
**A.** Its Efficacy % is 69%.

**Q.** What about the Efficacy (Botrytis cinerea [8]; 1.0 ppm) of the same compound?
**A.** Its Efficacy is 75%.

**Q.** And the Efficacy % (Botrytis cinerea [8]; 0.008 ppm)?
**A.** Its Efficacy % is 5%.

**Q.** And the Efficacy % (Botrytis cinerea [8]; 0.04 ppm)?
**A.** The Efficacy % was 53%.

**Q.** What about the Efficacy % (Botrytis cinerea [8]; 0.2 ppm) of the same compound?
**A.** The Efficacy % was 58%.

**Q.** And the Efficacy % (Botrytis cinerea [8]; 1.0 ppm)?
**A.** Its Efficacy % is 77%.

**Q.** And the Efficacy % (Alternaria alternate; 0.008 ppm)?
**A.** The Efficacy % was 43% and 52%.

**Q.** What about the Efficacy % (Alternaria alternate; 0.04 ppm) of the same compound?
**A.** The Efficacy % was 70% and 71% and 74%.

**Q.** What about the Efficacy % (Alternaria alternate; 0.2 ppm) of the same compound?
**A.** Its Efficacy % is 77% and 85% and 83%.

**Q.** What about the Efficacy % (Alternaria alternate; 1.0 ppm) of the same compound?
**A.** Its Efficacy % is 82% and 84%.

**Q.** What about the Efficacy (Cordana musae [9]; 0.2 ppm) of the same compound?
**A.** The Efficacy was 9%.

**Q.** And the Efficacy (Cordana musae [9]; 1 ppm)?
**A.** Its Efficacy is 20%.

**Q.** What about the Efficacy (Alternaria alternata; 0.008 ppm) of the same compound?
**A.** The Efficacy was 22%.

**Q.** What about the Efficacy (Alternaria alternata; 1 ppm) of the same compound?
**A.** The Efficacy was 77%.

**Q.** What about the Efficacy % (Colletotrichum coccodes; 0.008 ppm) of the same compound?
**A.** The Efficacy % was 0%.

**Q.** What about the Efficacy % (Colletotrichum coccodes; 0.04 ppm) of the same compound?
**A.** Its Efficacy % is 46%.

**Q.** What about the Efficacy % (Colletotrichum coccodes; 0.2 ppm) of the same compound?
**A.** Its Efficacy % is 8%.

**Q.** And the Efficacy % (Colletotrichum coccodes; 1 ppm)?
**A.** Its Efficacy % is 0%.

**Q.** And the Efficacy % (Colletotrichum coccodes; single active compound at 0.04 ppm)?
**A.** Its Efficacy % is 0% and 1%.

**Q.** What about the Efficacy % ([10]; 0.008 ppm) of the same compound?
**A.** Its Efficacy % is 6% and 0%.

**Q.** What about the Efficacy % ([10]; 0.2 ppm) of the same compound?
**A.** The Efficacy % was 100%.

**Q.** And the Efficacy % ([10]; 1.0 ppm)?
**A.** Its Efficacy % is 100%.

**Q.** What does the source list for `CCO[PH](=O)[O-].CCO[PH](=O)[O-].CCO[PH](=O)[O-].[Al+3]` [fosetylaluminium]?
**A.** Efficacy (Fusarium culmorum [11]; 0.8 ppm): 7%; Efficacy (Fusarium culmorum [11]; 4.0 ppm): 0%; Efficacy (Fusarium culmorum [11]; 20.0 ppm): 5%; Efficacy (Fusarium culmorum [11]; 100.0 ppm): 9%

**Q.** For `N#Cc1ccc(Oc2ccc(C(F)(F)C(O)(Cn3[nH]cnc3=S)c3ccc(F)cc3F)nc2)cc1` (stereo not shown) [fluoxytioconazole], which Efficacy % ([2]; alone, 0.008 ppm) is on record?
**A.** The Efficacy % was 8%.

**Q.** What about the Efficacy % ([2]; alone, 0.04 ppm) of the same compound?
**A.** The Efficacy % was 35%.

**Q.** What about the Efficacy % ([2]; alone, 0.2 ppm) of the same compound?
**A.** Its Efficacy % is 100%.

**Q.** And the Efficacy (Fusarium culmorum [5]; 0.008 ppm alone)?
**A.** The Efficacy was 12%.

**Q.** What about the Efficacy (Fusarium culmorum [5]; 1 ppm alone) of the same compound?
**A.** The Efficacy was 27%.

**Q.** And the Efficacy % (Botrytis cinerea [6]; 0.008 ppm alone)?
**A.** The Efficacy % was 0%.

**Q.** And the Efficacy % (Botrytis cinerea [6]; 0.2 ppm alone)?
**A.** Its Efficacy % is 0%.

**Q.** And the Efficacy % (Botrytis cinerea [6]; 1 ppm alone)?
**A.** Its Efficacy % is 13%.

**Q.** What about the Efficacy (Alternaria alternata; 0.008 ppm) of the same compound?
**A.** The Efficacy was 5%.
